The record followed here is PMC9266914, “Broad Spectrum Functional Activity of Structurally Related Monoanionic Au(III) Bis(Dithiolene) Complexes” (International Journal of Molecular Sciences, 2022).

Where “and” joins values, the source holds several entries; their conditions need not be identical. Equal values may be shown once. Read-outs that look alike come from different tables or passages of the source.

In one assay the test system is E. coli ATCC25922. Briefly: MIC determination, E. coli. The assay is classed as cell-based, Escherichia coli. The following applies: MH broth, 22 h, 37 °C. The text has this:
The bacterial strains Escherichia coli ATCC25922 and Staphylococcus aureus Newman were used in this work and maintained in Lennox Broth (LB) solid medium, composed of 10 g/L tryptone, 5 g/L yeast extract, 5 g/L NaCl and 20 g/L agar. The fungal strains Candida albicans SC5134 and C. glabrata CBS138 were used in this work and maintained in YPD solid medium, composed of 20 g/L glucose, 20 g/L peptone, 10 g/L yeast extract and 15 g/L agar. The strains were isolated from human infections.
The antimicrobial activity of the complexes towards the bacterial and fungal strains was assessed by the determination of the Minimal Inhibitory Concentration (MIC) of each complex towards the indicated microbial strains, based on standard methods, and as previously described. […] Serial 1:2 dilutions of stock solutions were prepared for each complex in Mueller–Hinton (MH) broth (Fluka Analytical) or RPMI-1640 medium (Sigma) supplemented with 20 g/L glucose and buffered with 0.165 M morpholinepropanesulphonic acid (RPMIG) to pH 7.0. Solutions prepared with MH were used for testing bacteria, while those prepared with RPMIG were used for testing fungi. For antibacterial activity assays, the final concentrations ranged from 250 to 0.24 μg/mL (when stock solution final concentration was 10 mg/mL), 125 μg/mL to 0.12 μg/mL (when stock solution final concentration was 5 mg/mL) and 62.5 to 0.06 μg/mL (when stock solution final concentration was 2.5 mg/mL). For antifungal assays, the final concentrations ranged from 125 μg/mL to 0.12 μg/mL (when stock solution final concentration was 10 mg/mL), 62.5 to 0.06 μg/mL (when stock solution final concentration was 5 mg/mL) and 31.25 to 0.03 μg/mL (when stock solution final concentration was 2.5 mg/mL). Then, 100 μL aliquots of adequately diluted bacterial suspensions of S. aureus Newman or E. coli ATCC 25922 were mixed with the MH serially diluted complexes aliquots to obtain 5 × 10^5 CFU/mL. In the case of fungi, cultures were diluted to obtain a final optical density of 0.025, measured at 530 nm (OD530). Bacterial suspensions were prepared from cultures grown for 5 h in MH broth at 37 °C and 250 rev·min^−1 and adequately diluted with fresh MH medium, while fungal suspensions were prepared from overnight cultures grown in YPD broth at 30 °C and 250 rev.min^−1 and diluted in buffered RPMIG. After 22 h of incubation at 37 °C (bacteria) or 24 h at 35 °C (fungi), the wells’ content was resuspended by pipetting and the OD640 (bacteria) or OD530 (fungi) were measured in a SPECTROstar Nano microplate reader (BMG Labtech).
At least three independent experiments were performed in duplicate for each complex under study. […] Positive (no complex) and negative controls (no inoculum) were performed for each experiment. The effect of 5% (V/V) DMSO on microbial growth was also assessed.

The test system of another assay is P. berghei hepatic stage. Briefly: In vitro activity against the hepatic stage of P. berghei infection (luciferase, Huh7 cells). The following applies: hepatic stage, Huh7 cells, 46 hpi. The assay is classed as cell-based, Plasmodium berghei. On the procedure:
The in vitro liver stage activity of gold complexes was assessed against P. berghei-infected Huh7 cells, as previously described. Briefly, Huh7 cells were cultured in RPMI-1640 medium supplemented with 10% (v/v) fetal bovine serum, 1% (v/v) penicillin/streptomycin, 1% (v/v) glutamine, 1% (v/v) non-essential amino acids and 10 mM HEPES. On the day prior to infection, Huh7 cells were seeded in 96-well plates at a density of approximately 3.1 × 10^4 cell/cm^2 and incubated at 37 °C, 5% CO2. Stock solutions of the complexes were initially prepared in DMSO and serially diluted in infection medium, i.e., culture medium supplemented with gentamicin (50 µg/mL) and fungizone (0.8 µg/mL), to obtain the test concentrations. As a control, DMSO was diluted in infection medium to a percentage that equals that of the highest compound concentrations tested. These dilutions were added to the cells in triplicates and incubated for 1 h at 37 °C, 5% CO2, after which 1 × 10^4 luciferase-expressing P. berghei sporozoites were added to each well. Plates were centrifuged at 1800× g for 5 min at room temperature and incubated for the duration of the assay. At 46 h post-infection (hpi), the impact of each compound concentration on cell viability was assessed by the Alamar Blue (Invitrogen, Buckinghamshire, UK) assay, according to the manufacturer’s recommendations. Infection was next assessed by bioluminescence, employing the Firefly Luciferase Assay Kit 2.0 (Biotium, Fremont, CA, USA), according to the manufacturer’s recommendations. For IC50 determination, nonlinear regression analysis was employed to fit the normalized results of the dose–response curves, using GraphPad Prism 8 (GraphPad software, La Jolla, CA, USA).

In assay [1] the test system is A2780 ovarian cancer cells. The experiment in a line: MTT cytotoxicity assay in A2780 (cisplatin sensitive) ovarian cancer cells. The format is cell-based, human. Here is the method: Cells were exposed to increasing concentrations of the complexes (0.01–100 μM) for 24 and/or 48 h, at 37 °C. The IC50 values were calculated from dose–response curves using the colorimetric MTT assay. […] Most complexes presented a similar cytotoxicity profile compared to Auranofin, but higher activity compared to Cisplatin, and, most importantly, were active in the Cisplatin-resistant OVCAR8 cells (Table 2).
The cytotoxic activity of the complexes was evaluated in the A2780 (cisplatin sensitive) (Sigma-Aldrich) and OVCAR8 (cisplatin resistant) (ATCC) ovarian cancer cells. Cells were grown in RPMI-1640 medium (Gibco, Thermo Fisher) supplemented with 10% fetal bovine serum (FBS) and were maintained at 37 °C in a humidified atmosphere with 5% CO2. The complexes were initially dissolved in DMSO and then in culture medium to prepare serial dilutions in the range 10^−9–10^−4 M. After 24 and/or 48 h incubation the cellular viability was measured by the colorimetric MTT assay, as previously described.

The test system of another assay is HIV-1 SG3.1. The experiment in a line: Single-round viral infectivity assay in TZM-bl reporter cells. The format is cell-based. The following applies: SG3.1 isolate, 48 h, in words. Here is the method: The HIV-1 SG3.1 subtype B strain was obtained by transfection of HEK293T cells with pSG3.1 plasmid using jetPrime transfection reagent (Polyplus-tranfection SA, Illkirch, France) according to the manufacturer’s instructions. The 50% tissue culture infectious dose (TCID50) of the virus was determined in a single-round viral infectivity assay using a luciferase reporter gene assay in TZM-bl cells and calculated using the statistical method of Reed and Muench.
The antiviral activity of Auranofin, [P][AuSEt(=S)] and [P][AuSBu(=S)] compounds was determined in a single-round viral infectivity assay using TZM-bl reporter cells, as previously described. Briefly, TZM-bl cells were infected with 200 TCID50 of SG3.1 in the presence of serial-fold dilutions of the compounds in growth medium, supplemented with DEAE-dextran. After 48 h of infection, luciferase expression was quantified with Pierce Firefly Luc One-Step Glow Assay Kit (ThermoFisher Scientific, Rockford, IL, USA) according to the manufacturer’s instructions.
At least two independent experiments were performed for each antiviral activity analysis. The assay was set up in triplicate wells. Virus controls and cell controls were used.

[2] abbreviates: 24 h incubation, read-out: IC50 A2780, 24 h.
Setting [3] is: 48 h incubation, read-out: IC50 A2780, 48 h.

For orientation: IC50 means the concentration at which inhibition is half-maximal. In the case of `CCn1c2c(sc1=[Se])[S][Au-]1([S]c3sc(=[Se])n(CC)c3[S]1)[S]2.c1ccc([P+](c2ccccc2)(c2ccccc2)c2ccccc2)cc1` [[P][AuSEt(=Se)]], in the assay with E. coli ATCC25922, the “MIC E. coli ATCC25922” value was greater than 125 µg/mL. The results for the IC50 (in the assay on P. berghei hepatic stage; in assay [1] (setting [2]); in assay [1] (setting [3])) were 416 ± 123 nM, 710 ± 120 nM and 220 ± 110 nM, respectively.

As for `CCn1c2c(sc1=S)[S][Au-]1([S]c3sc(=S)n(CC)c3[S]1)[S]2.c1ccc([P+](c2ccccc2)(c2ccccc2)c2ccccc2)cc1` [[P][AuSEt(=S)]], the “MIC E. coli ATCC25922” value in the assay with E. coli ATCC25922 is listed as greater than 125 µg/mL. In addition, the anti-HIV-1 activity entry in the assay with HIV-1 SG3.1 is “none of the compounds presented anti-HIV-1 activity”. For the same compound, the results for the IC50 (with P. berghei hepatic stage; in assay [1] (setting [2]); in assay [1] (setting [3])) were 474 ± 110 nM, 580 ± 200 nM and 180 nM, respectively.

On to `CC(=O)OC[C@H]1O[C@@H]([S-])[C@H](OC(C)=O)[C@@H](OC(C)=O)[C@@H]1OC(C)=O.CCP(CC)CC.[Au+]` [Auranofin, reference compound], for which the “MIC E. coli ATCC25922” value against E. coli ATCC25922 is 35.5 µg/mL and 35.5 ± 0.6 µg/mL. The anti-HIV-1 activity entry in the assay on HIV-1 SG3.1 is on record as “none of the compounds presented anti-HIV-1 activity”. Moreover, the IC50 in assay [1] (setting [2]) was found to be 2010 ± 710 nM.

For the compound `CC(C)n1c2c(sc1=S)[Se][Au-]1([Se]c3sc(=S)n(C(C)C)c3[Se]1)[Se]2.c1ccc([P+](c2ccccc2)(c2ccccc2)c2ccccc2)cc1` [[P][AuSeiPr(=S)]], the “MIC E. coli ATCC25922” value in the assay with E. coli ATCC25922 is listed as greater than 62.5 µg/mL. In addition, the IC50 with P. berghei hepatic stage was determined as 748 ± 70.2 nM; in assay [1] (setting [2]), 3740 ± 1220 nM; in assay [1] (setting [3]) it was 680 ± 180 nM.

In the case of `CCCCn1c2c(sc1=S)[S][Au-]1([S]c3sc(=S)n(CCCC)c3[S]1)[S]2.c1ccc([P+](c2ccccc2)(c2ccccc2)c2ccccc2)cc1` [[P][AuSBu(=S)]], the “MIC E. coli ATCC25922” value in the assay on E. coli ATCC25922 is reported as greater than 125 µg/mL. Further, the anti-HIV-1 activity entry in the assay with HIV-1 SG3.1 is on record as “none of the compounds presented anti-HIV-1 activity”. Besides, the IC50 in the assay with P. berghei hepatic stage is 470 ± 115 nM; in assay [1] (setting [2]), 1380 ± 280 nM; in assay [1] (setting [3]) it was 950 ± 50 nM.
